Data reported in PubChem BioAssay (NCI).
Values joined by “and” are separate entries in the source; they are usually repeats but may differ in a detail not shown here. Equal values may be shown once.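 A five-concentration, 48-hour dose response in 96-well plates underlies each endpoint, interpolated linearly between surrounding concentrations. At the GI50, growth is halved. The concentration for full growth arrest is given as TGI.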

Columns and labels:
Assay in all cases: NCI-60 cell line screen, 48 h
[1] = tested on: SK-MEL-5 melanoma
[2] = tested on: U251 CNS
[3] = tested on: XF 498 CNS
[4] = tested on: RXF 393 renal
[5] = tested on: NCI-H226 lung
[6] = tested on: SF-295 CNS
[7] = tested on: NCI-H460 lung
[8] = tested on: CCRF-CEM leukemia
[9] = tested on: MALME-3M melanoma

Compound | GI50 [1] [µM] | TGI [1] | GI50 [2] [µM] | TGI [2] [µM] | GI50 [3] [µM] | TGI [3] [µM] | GI50 [4] [µM] | TGI [4] [µM] | GI50 [5] [µM] | TGI [5] [µM] | GI50 [6] [µM] | TGI [6] [µM] | GI50 [7] [µM] | TGI [7] [µM] | GI50 [8] [µM] | TGI [8] | TGI [9] | GI50 [9]
CC(=O)OCC(CC[CH2][Sn]([Cl])([Cl])[c]1ccccc1)OC(C)=O (stereo not drawn) | 21.5 | 55.5 µM | 20.4 | 38.5 | 17.8 | 32.2 | 18.5 | 34.2 | 30.7 | > 100 | 24.5 | 60 | 19.6 | 38.8 | 21.3 | 68.6 µM | – | –
N#C/C(=C1\OC(=N)C(c2ccc(Cl)cc2Cl)C1=O)c1ccc(Cl)cc1Cl (stereo not drawn) | – | > 100 µM | – | – | – | > 100 | – | > 100 | – | > 100 | – | > 100 | – | – | – | – | > 100 µM | –
C=C1C=CC2(Br)OC3CC(C)(Cl)C(Br)CC13C2(C)C (stereo not drawn) | – | 31 µM | – | 35.3 | – | 27.9 | – | – | – | 34.1 | – | 45.5 | – | 46 | – | 47.5 µM | 34.5 µM | –
CC1CCC2(C)C(CC=C(C=O)C2(O)C=O)C12CO2 (stereo not drawn) | – | – | – | 9.37 | – | 7.21 | – | 2.85 | – | 4.99 | – | 13.9 | – | 7.7 | – | 4.01 µM | 8.74 µM | –
O=C(CO)C1CC2C=CC1C2 (stereo not drawn) | – | > 100 µM | – | > 100 | – | > 100 | – | > 100 | – | – | – | > 100 | – | > 100 | – | > 100 µM | > 100 µM | –
NCc1ccc(-c2nc(-c3ccc(Cl)c(O)c3)c(-c3ccncc3)[nH]2)cc1 | > 15.4 | > 25 µM | > 25 | > 25 | – | – | > 19.2 | > 25 | > 25 | > 25 | > 25 | > 25 | > 25 | > 25 | > 25 | > 25 µM | 11.2 µM | 2.72 µM
Nc1nc(-c2ccc(Cl)cc2)nc2c1sc(=S)n2-c1ccccc1 | 2.91 | 10.1 µM | 3.5 | 11.9 | – | – | 2.51 | 6.19 | 2.78 | 6.73 | 2.72 | 7.62 | 3.31 | 10.2 | 27 | > 100 µM | 5.67 µM | 2.59 µM
O=S(=O)(NCCCNc1nccc(-c2c(-c3ccc(F)cc3)nc3sccn23)n1)c1ccc(F)cc1 | 4.63 | 57.9 µM | 8.87 | > 100 | – | – | 3.67 | 70.8 | 4.76 | 77.5 | 20.6 | > 100 | 5.62 | > 100 | 3.91 | > 100 µM | 94.4 µM | 9.06 µM
CCn1ccnc1C(=O)/C=C/c1ccc(CC(=O)Nc2ccc(F)cc2)cc1 | 5.74 | > 16.7 µM | 1.88 | 7.94 | – | – | 3.39 | 8.66 | 3.61 | 9.53 | 4.41 | > 16.7 | 2.64 | 6.51 | 4.35 | 16.3 µM | > 16.7 µM | > 16.7 µM
CC1(C)[C@H](O)[C@H](F)C[C@@]2(C)Oc3ccc(C(=O)Nc4ccc5c(c4)NC(=O)C54CCN(CCCCC#N)CC4)cc3C[C@H]12 | – | 2.9 µM and 1.55 µM | 0.00414 | 2.02 | – | – | 0.00279 | – | 2.91 | 17.4 | 0.00402 | 0.0181 | 0.0653 | 10.9 | 0.00949 | 5.98 µM and 6.98 µM | 3.1 µM and 3.43 µM | 0.332 µM and 1.04 µM
N#C/C(=C\c1cc2ccc(N3CCC3)cc2oc1=O)C(=O)N(CC(=O)O)CC(=O)O | > 100 | > 100 µM | > 100 | > 100 | – | – | > 100 | > 100 | > 100 | > 100 | > 100 | > 100 | > 100 | > 100 | > 100 | > 100 µM | > 100 µM | > 100 µM
[Cl][Cu][Cl] | > 10 | > 10 µM | > 10 | > 10 | – | – | > 10 | > 10 | > 10 | > 10 | 3.6 | > 10 | > 10 | > 10 | > 10 | > 10 µM | > 10 µM | > 10 µM
Nc1nc2ccccc2c2c1S(=O)(=O)c1ccc(Cl)cc1C2=O | 2.02 | 30.9 µM | 1.79 | 18.3 | – | – | 0.784 | 2.05 | 2.14 | 17.3 | 2.22 | > 50 | 1.68 | 6.63 | 0.623 | 4 µM | 4.25 µM | 1.23 µM
CC(=O)N(O)c1ccc(/C=C/c2ccccc2)cc1 | 6.05 | > 100 µM | 1.23 | 3.59 | – | – | 0.539 | 1.9 | 0.0656 | 0.386 | 0.362 | 2.78 | 0.247 | 8.39 | 0.137 | > 100 µM | > 100 µM | > 66.6 µM
O=[N+]([O-])c1cc(Cc2cc([N+](=O)[O-])c3cccnc3c2O)c(O)c2ncccc12 | – | 24.5 µM | – | 19.1 | – | – | – | 18 | – | 43.5 | – | 37.2 | – | 9.4 | – | 6.39 µM | 25.5 µM | –
c1ccc(C2CCCCC2)c(OCCCCCN2CCNCC2)c1 | 1.45 | 2.81 µM | 1.82 | 4.2 | – | – | 1.77 | 4.02 | 22.4 | 48.5 | 2.36 | 6.04 | 1.65 | 3.56 | 2.4 | 7.9 µM | 3.57 µM | 1.85 µM
c1ccc2c(CNCCN3CCNCC3)c3ccccc3c(CNCCN3CCNCC3)c2c1 | 15.6 | 35.2 µM | 14.8 | 40.3 | – | – | 25.3 | 81.9 | 10.3 | 37.6 | 17.8 | 43.5 | 25 | 98.3 | 2.3 | 14.2 µM | 30.2 µM | 11.8 µM
